Test results reported in patent US5424396A, “Antimicrobial peptide and antimicrobial agent” (Morinaga Milk Industry Co., Ltd., priority 1991, dated 1995).

Test system: Escherichia coli
Experiment: Antimicrobial activity test: rate of inhibition of E. coli proliferation (turbidity)
Type: cell-based
Conditions: 16 hours at 37° C.
Method: One platinum loop was collected from a stock slant of Escherichia coli, streaked on a standard agar medium (manufactured by Nissui Pharmaceutical Co.) and incubated under aerobic conditions for 16 hours at 37° C., the colonies which grew on the surface of the standard agar medium were collected using a platinum loop, suspended in sterilized physiological saline solution, the turbidity was measured using a spectrophotometer (manufactured by Hitachi Manufacturing Co.) and adjusted to 0.1 (O.D.; 660 nm) and a pre-incubation solution was prepared.
Bactocasitone (manufactured by Difco Laboratory Co.) was dissolved at a concentration of 1% in purified water, the pH was adjusted to 7.0 with 1M sodium hydroxide, the solution was sterilized at 115° C. for 15 minutes and a basal medium (liquid medium) was prepared. […]
The percentages of the rate of inhibition of proliferation are not in weight (same hereinafter).

Substance: Trp-Gln-Trp-Arg (WQWR) [Sample No. 7]
- inhibitory rate (rate of inhibition of proliferation) (added quantity 0.5 μM): 0%
- inhibitory rate (rate of inhibition of proliferation) (added quantity 1 μM): 21%
- inhibitory rate (rate of inhibition of proliferation) (added quantity 2 μM): 68%
- inhibitory rate (rate of inhibition of proliferation) (added quantity 5 μM): 83%
- inhibitory rate (rate of inhibition of proliferation) (added quantity 10 μM): 95%
- inhibitory rate (rate of inhibition of proliferation) (added quantity 20 μM): 100%
- inhibitory rate (rate of inhibition of proliferation) (added quantity 60 μM): 100%
- inhibitory rate (rate of inhibition of proliferation) (added quantity 100 μM): 100%
- inhibitory rate (rate of inhibition of proliferation) (added quantity 200 μM): 100%
